Ki data for seven compounds are collected here from US7932284B2, “Indole sulfonamide modulators of progesterone receptors” (Eli Lilly and Company, priority 2006, dated 2011).

The target of experiment [1] is T1, human PR (progesterone receptor) (Homo sapiens, UniProt P06401).
T1 construct: expressed in transfected cells; host or cells: HEK293
T1 sequence (P06401 1-933): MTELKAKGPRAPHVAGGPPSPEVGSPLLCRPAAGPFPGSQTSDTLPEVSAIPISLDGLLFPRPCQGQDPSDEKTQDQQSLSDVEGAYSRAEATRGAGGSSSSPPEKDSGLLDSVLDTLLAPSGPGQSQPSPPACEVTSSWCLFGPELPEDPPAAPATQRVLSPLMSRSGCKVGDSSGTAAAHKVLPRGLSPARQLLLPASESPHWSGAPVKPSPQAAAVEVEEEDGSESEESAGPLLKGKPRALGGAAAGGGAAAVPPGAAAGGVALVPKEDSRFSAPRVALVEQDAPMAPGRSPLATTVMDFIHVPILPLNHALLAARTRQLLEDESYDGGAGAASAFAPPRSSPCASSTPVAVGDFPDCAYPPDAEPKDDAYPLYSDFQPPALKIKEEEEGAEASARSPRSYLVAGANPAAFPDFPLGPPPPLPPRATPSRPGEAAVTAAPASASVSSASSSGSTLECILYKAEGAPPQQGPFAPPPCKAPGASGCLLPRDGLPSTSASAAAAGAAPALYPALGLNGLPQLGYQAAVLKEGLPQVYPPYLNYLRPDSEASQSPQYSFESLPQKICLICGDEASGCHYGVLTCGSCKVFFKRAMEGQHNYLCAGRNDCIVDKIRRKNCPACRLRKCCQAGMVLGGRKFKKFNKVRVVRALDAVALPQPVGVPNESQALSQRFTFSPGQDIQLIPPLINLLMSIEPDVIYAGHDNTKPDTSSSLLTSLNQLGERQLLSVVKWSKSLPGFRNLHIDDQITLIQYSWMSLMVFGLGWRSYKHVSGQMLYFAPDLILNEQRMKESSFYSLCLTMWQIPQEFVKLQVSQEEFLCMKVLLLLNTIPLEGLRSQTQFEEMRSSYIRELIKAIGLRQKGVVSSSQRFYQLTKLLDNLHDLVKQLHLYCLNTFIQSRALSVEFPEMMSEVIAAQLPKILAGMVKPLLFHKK
The experiment is described as follows: PR competition binding assay (HEK293 cell lysate). The note with it: 0.29 nM 3H-methyltrienolone, 293-PR lysate. The method, then: (§1) Cell lysates from HEK293 cells overexpressing human GR (glucocorticoid receptor), AR (androgen receptor), MR (mineralocorticoid receptor) or PR (progesterone receptor) are used for competition binding assays to determine Ki values for compounds of interest. Briefly, competition binding assays are run in a buffer containing 20 mM HEPES, pH 7.6, 0.2 mM EDTA, 75 mM NaCl, 1.5 mM MgCl2, 20% glycerol, 20 mM sodium molybdate, 0.2 mM DTT, 20 ug/ml aprotinin, and 20 ug/ml leupeptin, using either 0.3 nM ^3H-dexamethasone for GR binding, 0.36 nM ^3H-methyltrienolone for AR binding, 0.25 nM ^3H-aldosterone for MR binding, or 0.29 nM ^3H-methyltrienolone for PR binding, and either 20 ug 293-GR lysate, 22 ug 293-AR lysate, 20 ug 293-MR lysate or 40 ug 293-PR lysate per well. Competing compounds are added at various concentrations in half-log increments. Non-specific binding is determined in the presence of 500 nM dexamethasone for GR binding, 500 nM aldosterone for MR binding, or 500 nM methyltrienolone for AR and PR binding. The binding reaction (140 μl) is incubated overnight at 4° C., then 70 μl of cold charcoal-dextran buffer (containing per 50 ml of assay buffer, 0.75 g of charcoal and 0.25 g of dextran) is added to each reaction. Plates are mixed 8 minutes on an orbital shaker at 4° C. Plates are then centrifuged at 3,000 rpm at 4° C. for 10 minutes. An aliquot of 120 μl of the mixture is transferred to another 96-well plate and 175 μl of Wallac Optiphase “Hisafe 3” scintillation fluid is added to each well. Plates are sealed and shaken vigorously on an orbital shaker. After an incubation of 2 hrs, plates are read in a Wallac Microbeta counter. […] The Kd for ^3H-dexamethasone for GR binding, ^3H-methyltrienolone for AR binding, ^3H-aldosterone for MR binding, or ^3H-methyltrienolone for PR binding, is determined by saturation binding. The IC50 values for compounds are converted to Ki using Cheng-Prusoff equation and the Kd determined by saturation binding assay.
More preferably the compounds of the present invention have PR binding value K; of <10 nM.

Experiment [2] concerns the target T2, human MR (mineralocorticoid receptor) (Homo sapiens, UniProt P08235).
T2 construct: expressed in transfected cells; host or cells: HEK293
T2 sequence (P08235 1-984): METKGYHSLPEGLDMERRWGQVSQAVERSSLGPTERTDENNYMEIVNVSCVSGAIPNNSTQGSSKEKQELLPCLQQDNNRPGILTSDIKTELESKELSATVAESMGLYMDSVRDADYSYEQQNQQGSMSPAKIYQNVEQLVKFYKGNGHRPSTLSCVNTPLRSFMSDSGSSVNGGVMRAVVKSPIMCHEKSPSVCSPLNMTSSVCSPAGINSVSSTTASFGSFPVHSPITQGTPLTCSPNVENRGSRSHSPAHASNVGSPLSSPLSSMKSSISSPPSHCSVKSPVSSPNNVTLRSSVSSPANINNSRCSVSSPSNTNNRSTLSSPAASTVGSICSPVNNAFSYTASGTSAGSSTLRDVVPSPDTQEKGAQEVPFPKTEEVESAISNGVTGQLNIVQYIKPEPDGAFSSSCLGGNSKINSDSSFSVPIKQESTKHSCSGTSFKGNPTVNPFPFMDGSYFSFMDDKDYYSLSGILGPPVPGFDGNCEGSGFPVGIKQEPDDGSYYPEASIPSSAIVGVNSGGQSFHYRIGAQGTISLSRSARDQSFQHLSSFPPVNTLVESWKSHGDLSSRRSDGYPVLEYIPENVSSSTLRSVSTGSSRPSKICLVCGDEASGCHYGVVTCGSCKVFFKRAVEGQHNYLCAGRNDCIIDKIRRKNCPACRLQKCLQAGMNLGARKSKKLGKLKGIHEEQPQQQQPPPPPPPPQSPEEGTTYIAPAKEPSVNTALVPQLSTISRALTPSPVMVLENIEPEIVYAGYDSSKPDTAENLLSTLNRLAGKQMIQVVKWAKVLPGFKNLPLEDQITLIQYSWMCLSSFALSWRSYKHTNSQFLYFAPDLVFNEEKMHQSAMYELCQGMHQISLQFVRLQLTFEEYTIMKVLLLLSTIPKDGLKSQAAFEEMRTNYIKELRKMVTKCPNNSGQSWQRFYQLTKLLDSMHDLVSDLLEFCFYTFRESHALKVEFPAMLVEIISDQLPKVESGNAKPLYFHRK
The experiment is described as follows: MR competition binding assay (HEK293 cell lysate). The conditions noted are these: 0.25 nM 3H-aldosterone, 293-MR lysate. The method, then:
as §1

On to `CC(C)n1cc(-c2ccc(C#N)n2C)c2ccc(NS(C)(=O)=O)cc21` [Example 78, N-[3-(5-Cyano-1-methyl-1H-pyrrol-2-yl)-1-isopropyl-1H-indol-6-yl]-methanesulfonamide], for which the Ki in experiment [1] was below 0.05 µM; in experiment [2], 0.1 to 0.5 µM.

As to `COc1ccc(-c2cn(C(C)C)c3cc(NS(C)(=O)=O)ccc23)cc1C` [Example 86, N-[1-Isopropyl-3-(4-methoxy-3-methyl-phenyl)-1H-indol-6-yl]-methanesulfonamide], the Ki was below 0.05 µM in experiment [1] and above 1 µM in experiment [2].

Turning to `CC(C)Cn1cc(-c2ccc(C#N)cc2)c2ccc(NS(C)(=O)=O)cc21` [Example 29, N-[3-(4-Cyano-phenyl)-1-isobutyl-1H-indol-6-yl]-methanesulfonamide], the values for the Ki in experiment [1] and in experiment [2] were below 0.05 µM and 0.5 to 1 µM, respectively.

In the case of `CC(C)n1cc(-c2ccc3c(cnn3C)c2)c2ccc(NS(C)(=O)=O)cc21` [Example 107, N-[1-Isopropyl-3-(1-methyl-1H-indazol-5-yl)-1H-indol-6-yl]-methanesulfonamide], the Ki in experiment [1] is 0.05 to 0.1 µM; in experiment [2] it was above 1 µM.

As for `Cn1cc(-c2ccc([N+](=O)[O-])cc2)c2ccc(NS(C)(=O)=O)cc21` [Example 30, N-[1-Methyl-3-(4-nitro-phenyl)-1H-indol-6-yl]-methanesulfonamide], the Ki in experiment [1] was below 0.05 µM; in experiment [2], above 1 µM.

On to `CC(C)n1cc(-c2ccc3c(c2)COC3=O)c2ccc(NS(C)(=O)=O)cc21` [Example 97, N-[1-Isopropyl-3-(1-oxo-1,3-dihydro-isobenzofuran-5-yl)-1H-indol-6-yl]-methanesulfonamide], for which the Ki in experiment [1] was below 0.05 µM; in experiment [2], above 1 µM.

Turning to `CS(=O)(=O)Nc1ccc2c(-c3ccc(C#N)cc3)cn(Cc3ccccc3)c2c1` [Example 72, N-[1-Benzyl-3-(4-cyano-phenyl)-1H-indol-6-yl]-methanesulfonamide], the Ki in experiment [1] and in experiment [2] was below 0.05 µM each time.

As usually defined, the Ki is the dissociation constant of the complex between target and ligand, obtained from inhibition or displacement.
